Results on nine compounds are retold here after patent US8088819B2, “Derivatives of substituted 3-phenyl-1-(phenylthienyl)propan-1-ones and of 3-phenyl-1-(phenylfuranyl) propan-1-ones, preparation and use” (priority 2006, dated 2012).

One series has as its target T1, hPPARdelta (Homo sapiens, UniProt Q03181).
T1 construct: expressed in transfected cells; host or cells: COS-7 (monkey kidney fibroblasts)
T1 sequence (Q03181 211-439 limits assumed): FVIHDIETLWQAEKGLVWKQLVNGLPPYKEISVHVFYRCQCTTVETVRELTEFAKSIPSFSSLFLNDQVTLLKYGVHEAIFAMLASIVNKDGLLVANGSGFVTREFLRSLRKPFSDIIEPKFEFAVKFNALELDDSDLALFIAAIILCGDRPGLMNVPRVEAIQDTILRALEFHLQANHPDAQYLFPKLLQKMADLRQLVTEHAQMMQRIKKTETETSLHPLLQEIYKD
As to the kind of experiment: PPAR activation: Gal4-hPPARδ chimera luciferase transactivation in COS-7 cells, Method 2. It counts as cell-based. The note with it: COS-7, 24 h; for pEC50: 1% Ultroser; for Emax: maximum percentage response relative to the reference GW501516, read-out: hPPARdelta % max. As for the experimental part: (§1) The activation of the PPARs was evaluated in vitro on a line of monkey kidney fibroblasts (COS-7) by measuring the transcriptional activity of chimeras constituted of the DNA binding domain of the Gal4 transcription factor of yeast and the ligand binding domain of the various PPARs. The compounds were tested at doses between 10^−5 and […] on the chimeras Gal4-PPARα, γ or δ, and the corresponding EC50 values were determined.
(§2) The principle, the cells and the plasmids used for example 5 were also employed in this example. Only the application of the transfection stage is slightly different. The details are presented below.
(§3) The adherent COS-7 cells are transfected with 40 μg of DNA per 225 cm^2 dish, with a pGal4-PPAR/Gal4(RE)_TkpGL3 ratio of 1/10, in the presence of 10% fetal calf serum. The cells are then detached and seeded in the absence of serum in 384-well plates (2×10^4 cells/well) and incubated for 4 hours at 37° C. The compounds are then diluted in a 96-well plate and transferred to the 384-well plate. Activation with the test compounds is carried out for an additional 24 h at 37° C. in the presence of 1% of Ultroser™ lipid-free synthetic serum (Biosepra). These last 2 stages are automated using a Genesis Freedom 200™ station (Tecan). At the end of the experiment, the cells are lysed and the luciferase activity is determined using the Steady-Lite™ HTS (Perkin Elmer) following the supplier's recommendations.

The target of another series is T2, hPPARgamma (Homo sapiens, UniProt P37231).
T2 construct: expressed in transfected cells; host or cells: COS-7 (monkey kidney fibroblasts)
T2 sequence (P37231 238-503 limits assumed): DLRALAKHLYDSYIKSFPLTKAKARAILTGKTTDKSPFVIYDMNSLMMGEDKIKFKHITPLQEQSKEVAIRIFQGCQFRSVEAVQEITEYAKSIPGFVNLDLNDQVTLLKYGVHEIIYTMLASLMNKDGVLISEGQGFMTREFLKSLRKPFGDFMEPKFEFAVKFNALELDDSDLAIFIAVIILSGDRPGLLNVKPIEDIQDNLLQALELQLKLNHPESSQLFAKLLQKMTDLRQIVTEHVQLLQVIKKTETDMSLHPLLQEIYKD
Nature of the series: PPAR activation: Gal4-hPPARγ chimera luciferase transactivation in COS-7 cells, Method 2. The note with it: COS-7, 24 h; for pEC50: 1% Ultroser. It counts as cell-based. As for the experimental part: The activation of the PPARs was evaluated in vitro on a line of monkey kidney fibroblasts (COS-7) by measuring the transcriptional activity of chimeras constituted of the DNA binding domain of the Gal4 transcription factor of yeast and the ligand binding domain of the various PPARs.
Only the application of the transfection stage is slightly different. The details are presented below.
as §3

The target in another series is T3, hPPARalpha (Homo sapiens, UniProt Q07869).
T3 construct: expressed in transfected cells; host or cells: COS-7 (monkey kidney fibroblasts)
T3 sequence (Q07869 239-466 limits assumed): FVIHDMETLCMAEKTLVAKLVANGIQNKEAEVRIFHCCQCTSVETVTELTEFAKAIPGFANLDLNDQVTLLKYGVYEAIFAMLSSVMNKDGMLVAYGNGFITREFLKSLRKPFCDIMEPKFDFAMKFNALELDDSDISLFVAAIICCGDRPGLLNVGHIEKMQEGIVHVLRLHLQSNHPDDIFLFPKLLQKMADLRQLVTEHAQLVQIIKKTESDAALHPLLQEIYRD
Nature of the series: PPAR activation: Gal4-hPPARα chimera luciferase transactivation in COS-7 cells, Method 2. It counts as cell-based. The note with it: COS-7, 24 h; for pEC50: 1% Ultroser; for Emax: maximum percentage response relative to the reference phenofibric acid, read-out: hPPARalpha % max. As for the experimental part:
as §1, §2, §3

[1] abbreviates: maximum percentage response relative to the reference rosiglitazone, Method 2, read-out: hPPARgamma % max.
Where [2] appears, read: Method 2, read-out: hPPARgamma EC50.

pEC50: −log10 of the molar value. Where “and” joins values, the source holds several entries; their conditions need not be identical. Equal entries are not always repeated. Where two headings read alike, the source gives them in different places.

`CON=C(CCc1ccc(OC(C)(C)C(=O)O)c(Cl)c1Cl)c1ccc(-c2ccc(C(F)(F)F)cc2)s1` (mixture of isomers) [Compound 50, 2-(2,3-dichloro-4-(3-(methoxyimino)-3-(5-(4-(trifluoromethyl)-phenyl)thien-2-yl)propyl)phenoxy)-2-methylpropanoic acid] yielded a melting point of 68 to 69 °C. Moreover, at hPPARdelta, the pEC50 was 7.30 and the Emax came to 78%. The Emax at hPPARgamma (setting [1]) was determined as 32%. Moreover, the pEC50 at hPPARgamma (setting [2]) was 6.57. Besides, at hPPARalpha, the pEC50 was 6.59 and the Emax came out at 38%.

On to `O=C(O)COc1ccc(CCC(=O)c2ccc(-c3ccc(C(F)(F)F)cc3)s2)cc1F` [Compound 25, 2-(2-fluoro-4-(3-oxo-3-(5-(4-(trifluoromethyl)phenyl)thien-2-yl)-propyl)phenoxy)acetic acid], for which the melting point was 170 to 171 °C. On hPPARdelta, the negative-log EC50 (pEC50) is 5.13 and the Emax is 75%. For the same compound, on hPPARgamma (setting [1]), the Emax is 27%. Further, the pEC50 on hPPARgamma (setting [2]) was 4.44. For the same compound, at hPPARalpha, the pEC50 was 5.77 and the Emax was 55%.

Regarding `CC(C)(Oc1ccc(CCC(=O)c2ccc(-c3ccc(C(F)(F)F)cc3)o2)c(Cl)c1Cl)C(=O)O` [Compound 38, 2-(2,3-dichloro-4-(3-oxo-3-(5-(4-(trifluoromethyl)phenyl)fur-2-yl)-propyl)phenoxy)-2-methylpropanoic acid], the melting point was found to be 85 °C. Further, at hPPARdelta, the pEC50 is 7.85 and 8.05; the Emax was determined as 89%. In addition, the Emax at hPPARgamma (read-out: hPPARgamma % max, maximum percentage response relative to the reference rosiglitazone, Method 2) is 37%. The pEC50 at hPPARgamma (hPPARgamma EC50, Method 2) was 5.74 and 6.09. Besides, at hPPARalpha, the pEC50 is 6.70 and 6.49; the Emax came out at 44%.

For the compound `CC(C)(Oc1ccc(CCC(=O)c2ccc(-c3ccc(Br)cc3)s2)c(Cl)c1Cl)C(=O)O` [Compound 52, 2-(4-(3-(5-(4-bromophenyl)thien-2-yl)-3-oxopropyl)-2,3-dichloro-phenoxy)-2-methylpropanoic acid], the melting point is 155 to 157 °C. Besides, at hPPARdelta, the negative logarithm of the EC50 (pEC50) is 7.30 and the Emax was 104%. In addition, on hPPARgamma (setting [1]), the Emax came to 57%. In addition, at hPPARgamma (setting [2]), the pEC50 was 5.99. Also, on hPPARalpha, the pEC50 is 6.68 and the Emax is 53%.

Take `CSc1ccc(-c2ccc(C(=O)CCc3ccc(OC(C)(C)C(=O)O)c(Cl)c3Cl)s2)cc1` [Compound 54, 2-(2,3-dichloro-4-(3-(5-(4-(methylthio)phenyl)thien-2-yl)-3-oxo-propyl)phenoxy)-2-methylpropanoic acid]: the melting point was in the range of 171 to 172 °C. Besides, on hPPARdelta, the pEC50 was 7.15 and the Emax was 107%. The Emax at hPPARgamma (setting [1]) turned out to be 62%. Further, at hPPARgamma (setting [2]), the pEC50 is 6.07. Besides, on hPPARalpha, the pEC50 is 6.82 and the Emax came to 43%.

As for `CC(C)OC(CCc1ccc(OC(C)(C)C(=O)O)c(Cl)c1Cl)c1ccc(-c2ccc(C(F)(F)F)cc2)s1` (stereo not shown) [Compound 55, 2-(2,3-dichloro-4-(3-isopropoxy-3-(5-(4-(trifluoromethyl)-phenyl)thien-2-yl)propyl)phenoxy)-2-methylpropanoic acid], the melting point lay within 88 to 90 °C. Also, at hPPARdelta, the negative-log EC50 (pEC50) is 5.33 and the Emax was determined as 34%. For the same compound, the Emax on hPPARgamma (setting [1]) is 2%. Also, at hPPARalpha, the pEC50 is 5.55 and the Emax worked out at 25%.

Consider `CC(C)(Oc1ccc(CCC(=O)c2ccc(-c3ccccc3)s2)c(Cl)c1Cl)C(=O)O` [Compound 57, 2-(2,3-dichloro-4-(3-oxo-3-(5-phenylthien-2-yl)propyl)phenoxy)-2-methylpropanoic acid], for which the melting point was 179 to 180 °C. Also, on hPPARdelta, the pEC50 is 6.46 and the Emax was found to be 88%. The Emax on hPPARgamma (setting [1]) was found to be 39%. Besides, on hPPARgamma (setting [2]), the pEC50 is 5.82. In addition, at hPPARalpha, the pEC50 was 6.00 and the Emax was found to be 44%.

For `Cc1cc(CCC(=O)c2ccc(-c3ccc(C(F)(F)F)cc3)s2)ccc1OC(C)(C)C(=O)O` [Compound 59, 2-methyl-2-(2-methyl-4-(3-oxo-3-(5-(4-(trifluoromethyl)phenyl)-thien-2-yl)propyl)phenoxy)propanoic acid], the melting point was 130 to 131 °C. Also, on hPPARdelta, the pEC50 was 7.52 and the Emax worked out at 107%. For the same compound, on hPPARgamma (setting [1]), the Emax was 57%. Also, the pEC50 on hPPARgamma (setting [2]) is 6.64. Moreover, at hPPARalpha, the Emax turned out to be 47%.

For the compound `CC(C)(Oc1ccc(CCC(=O)c2ccc(-c3ccc(C(F)(F)F)cc3)s2)cc1)C(=O)O` [Compound 67, 2-(4-(3-oxo-3-(5-(4-(trifluoromethyl)phenyl)thien-2-yl)propyl)-phenoxy)-2-methylpropanoic acid], the melting point was in the range of 154 to 155 °C. At hPPARdelta, the pEC50 was 6.44 and the Emax turned out to be 75%. Moreover, at hPPARgamma (setting [1]), the Emax was 37%. Besides, on hPPARgamma (setting [2]), the pEC50 was 5.32. Besides, on hPPARalpha, the pEC50 was 8.00 and the Emax was determined as 45%.

Broadly, the pEC50 is the negative decadic logarithm of the EC50, by convention in mol/L. One may read the melting point as the temperature, or range, at which the solid turns liquid.
